The record followed here is patent US20090029992A1, “SUBSTITUTED PYRAZOLE COMPOUNDS” (priority 2007, published 2009).

One assay concerns HCT116 cells. In words: Whole cell cytotoxicity assay, Sulforhodamine B. The following applies: Homo sapiens, HCT-116, HCT116, 96 hours incubation, SRB; for IC50: read-out: IC50 values in this assay (HCT116 cell growth). The assay is classed as cell-based. The gist of the method:
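HCT116 cells (500/well) in DMEM/10% FBS/2 mM glutamine were preincubated 24 h, then exposed to compound for 96 h at 37 °C, 5% CO2, in duplicate. Cells were fixed with TCA and stained with sulforhodamine B (A570). GI50, TGI and LC50 were derived relative to a time-zero plate and an untreated control.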

For assay [1], the target named is T1, N-terminal His-tagged human Src (Homo sapiens, UniProt P12931).
T1 construct: His (N); purchased Upstate USA Inc, 706 Forest Street, Charlottesville, Va
T1 sequence (P12931 whole entry): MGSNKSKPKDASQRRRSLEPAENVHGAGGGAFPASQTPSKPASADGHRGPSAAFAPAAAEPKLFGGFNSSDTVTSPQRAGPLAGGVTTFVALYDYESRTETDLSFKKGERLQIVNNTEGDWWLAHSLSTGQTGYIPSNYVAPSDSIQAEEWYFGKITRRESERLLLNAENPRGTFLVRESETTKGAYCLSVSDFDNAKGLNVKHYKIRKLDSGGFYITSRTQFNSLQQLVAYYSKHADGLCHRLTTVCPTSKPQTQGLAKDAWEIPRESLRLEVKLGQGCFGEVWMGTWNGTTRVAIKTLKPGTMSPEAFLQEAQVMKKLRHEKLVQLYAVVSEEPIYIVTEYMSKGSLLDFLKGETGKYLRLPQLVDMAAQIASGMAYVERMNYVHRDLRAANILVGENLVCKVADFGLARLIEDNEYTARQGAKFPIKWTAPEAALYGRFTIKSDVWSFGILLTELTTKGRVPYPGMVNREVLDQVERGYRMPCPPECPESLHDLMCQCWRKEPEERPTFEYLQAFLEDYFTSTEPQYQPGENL
In words: Src kinase inhibition assay (33P-ATP filter assay). It counts as biochemical.

The next assay addresses T2, recombinant Aurora A (Homo sapiens, UniProt O14965).
T2 construct: purchased Upstate, Lake Placid, N.Y
T2 sequence (O14965 1-403): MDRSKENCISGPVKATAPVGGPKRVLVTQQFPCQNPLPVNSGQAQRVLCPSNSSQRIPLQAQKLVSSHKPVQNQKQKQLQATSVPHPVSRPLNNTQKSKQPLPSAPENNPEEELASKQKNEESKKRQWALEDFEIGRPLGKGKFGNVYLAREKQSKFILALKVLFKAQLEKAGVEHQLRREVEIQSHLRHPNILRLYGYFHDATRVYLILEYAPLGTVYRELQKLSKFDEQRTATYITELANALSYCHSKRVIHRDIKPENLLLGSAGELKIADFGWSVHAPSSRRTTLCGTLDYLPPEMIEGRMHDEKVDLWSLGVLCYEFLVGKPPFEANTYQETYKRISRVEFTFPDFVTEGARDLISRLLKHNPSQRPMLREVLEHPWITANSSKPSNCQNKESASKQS
In words: Aurora A (Aurora 2) inhibition assay, Z'-Lyte kinase assay. It counts as biochemical. As to conditions: ATP 10 μM, 1 h. As for the experimental part:
Compounds were tested for their potency against recombinant Aurora A (Upstate, Lake Placid, N.Y.) using the PanVera Z′-Lyte kinase assay kit—Ser/Thr 1 peptide (Invitrogen, Carlsbad, Calif.). Assays were carried out in kinase assay buffer (50 mM HEPES, pH 7.5, 10 mM MgCl2, 5 mM EGTA, 0.05% Brij-35, 2 mM DTT). Test compounds were initially dissolved in DMSO at 100× the highest tested concentration, then serially diluted to 4× test concentrations in kinase assay buffer. Next, Aurora A (final concentration 200-500 ng/mL), Z′-Lyte Ser/Thr 1 peptide (final concentration 2 μM) and ATP (final concentration 10 μM) were added according to the manufacturer's instructions. Assays were carried out in half-area 96-well white polystyrene assay plates (Corning, Corning, N.Y.) in a final volume of 20 μl. The reaction was allowed to proceed for 1 h at room temperature in the dark, at which point the development reagent and stop reagent were added according to the manufacturer's instructions. Coumarin (Ex. 400 nm, Em. 465 nm) and fluorescein (Ex. 400 nm, Em. 565 nm) fluorescence values were measured on a SpectraFluor Plus plate reader (Tecan, Durham, N.C.). The emission ratio (coumarin/fluorescein) was determined and used to calculate the percent phosphorylation for each well. Wells containing substrate but no kinase and wells containing a phosphopeptide control were used to set 0% and 100% phosphorylation values, respectively. Typically 20-40% of the substrate was phosphorylated in wells without inhibitor. Dose-response curves of relative Aurora A activity vs. inhibitor concentration were plotted with Grafit (Erithacus Software, Horley, Surrey, UK).

For assay [2], the target named is T3, N-terminal His6-tagged recombinant human KDR, residues 790-end (Homo sapiens, UniProt P35968).
T3 construct: recombinant human KDR, residues 790-end; His6 (N); purchased Upstate USA Inc, 706 Forest Street, Charlottesville, Va
T3 sequence (P35968 790-1356 limits assumed): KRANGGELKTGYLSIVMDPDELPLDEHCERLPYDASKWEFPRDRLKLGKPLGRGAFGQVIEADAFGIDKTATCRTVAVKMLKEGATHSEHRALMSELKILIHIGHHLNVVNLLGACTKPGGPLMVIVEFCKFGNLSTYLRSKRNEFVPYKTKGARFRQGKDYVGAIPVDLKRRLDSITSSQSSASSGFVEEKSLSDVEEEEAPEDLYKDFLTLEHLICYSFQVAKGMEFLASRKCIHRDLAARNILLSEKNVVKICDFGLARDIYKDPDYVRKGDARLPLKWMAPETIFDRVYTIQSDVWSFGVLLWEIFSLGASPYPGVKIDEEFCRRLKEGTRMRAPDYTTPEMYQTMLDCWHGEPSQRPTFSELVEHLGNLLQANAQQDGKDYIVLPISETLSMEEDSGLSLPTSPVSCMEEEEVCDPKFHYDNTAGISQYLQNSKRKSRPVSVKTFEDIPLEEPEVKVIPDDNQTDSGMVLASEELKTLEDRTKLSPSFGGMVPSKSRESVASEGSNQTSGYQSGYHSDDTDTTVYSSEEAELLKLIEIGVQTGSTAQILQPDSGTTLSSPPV
In words: KDR kinase inhibition assay (33P-ATP filter assay). The assay is classed as biochemical. In outline: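 His6-tagged human KDR (residues 790-end, 5-10 mU) with 0.33 mg/mL myelin basic protein in 8 mM MOPS pH 7.0, 0.2 mM EDTA, 10 mM magnesium acetate and [γ-33P]ATP; 40 min at room temperature. Stopped with phosphoric acid, filter-bound 33P counted; inhibition relative to no-inhibitor controls.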

[3] abbreviates: group with IC50 greater than 100 nM.

On to `Cc1cc(Nc2cc(N3CCN(C)CC3)nc(-c3ccc(F)cc3F)n2)n[nH]1` [Example 172, 2-(2,4-difluorophenyl)-N-(5-methyl-1H-pyrazol-3-yl)-6-(4-methylpiperazin-1-yl)pyrimidin-4-amine], for which the GI50 with HCT116 cells (read-out: GI50 HCT116 cell growth) was at most 1 µM. The results for the IC50 (in assay [1] (40 minutes at room temperature); at recombinant Aurora A (setting [3]); in assay [2] (40 minutes at room temperature)) were at most 0.1 µM, at most 1 µM and at most 0.1 µM, respectively.
As to `COc1ccc(-c2nc(Nc3cc(C)[nH]n3)cc(NC3CCOCC3)n2)cc1` [Compound 28, 2-(4-methoxyphenyl)-N^4-(5-methyl-1H-pyrazol-3-yl)-N^6-(tetrahydro-2H-pyran-4-yl)pyrimidine-4,6-diamine], the IC50 in the assay with HCT116 cells is 1 to 10 µM; in assay [1] (40 minutes at room temperature), at most 0.1 µM; at recombinant Aurora A, at most 0.1 µM; in assay [2] (setting [3]), at most 1 µM.
As for `Cc1cc(Nc2cc(NC3CCOCC3)nc(-c3cccc(Cl)c3)n2)n[nH]1` [Compound 23, 2-(3-chlorophenyl)-N^4-(5-methyl-1H-pyrazol-3-yl)-N^6-(tetrahydro-2H-pyran-4-yl)pyrimidine-4,6-diamine], the IC50 was 1 to 10 µM in the assay with HCT116 cells, at most 1 µM in assay [1] (setting [3]), at most 0.1 µM on recombinant Aurora A and at most 1 µM in assay [2] (setting [3]).
